# In patent publication US11466016B2, “Pharmaceutical compounds” (priority 2018, dated 2022):
# Structures can show the parent of a compound that is named as a salt.
# Columns and labels:
# pERK in HCC827 cells = assay: Cellular pERK Inhibition Assay (phospho-p44/42 MAPK sandwich ELISA); type: cell-based
# Description: Cellular pERK Inhibition Assay
# HCC827 cells (ATCC, Manassas, USA) were seeded into 96-well plates at a density of 1×10^5 cells/well in RPMI medium supplemented with 10% FBS and incubated 24 h. Compounds were diluted first in DMSO and then into serum-free medium, before being added to cells in triplicate to give a final concentration of 0.1% DMSO. Plates were incubated at 37° C. for 0.5 hours in a humidified atmosphere of 5% CO2 in air.
# Following compound treatment, medium was removed and cells were lysed by adding 50 μL of lysis buffer (Cell Signalling Technology, Beverly, USA) to each well. Plates were then incubated at room temperature for 25 minutes with shaking. pERK levels were measured in lysates using the PathScan® phospho-p44/42 MAPK (Thr202/Tyr204) sandwich ELISA (Cell Signalling Technology, Beverly, USA) as per kit instructions. Briefly, 50 μL of cell lysate was added to 50 μL of ELISA sample diluent in a 96-well ELISA plate and incubated overnight at 4° C. Following washing, 100 μL of detection antibody was added per well and the plates incubated for 1 hour at 37° C. […] Plates were read at 450 nm on a SpectraMax Gemini reader (Molecular Devices, Uckfield, UK).
# The average signal from blank wells (no cells added) was subtracted from the signals from each sample well. Levels of pERK were then expressed as “percent of control”, using DMSO treated samples as control. […]
# SHP2 = SHP2 (Homo sapiens (Human), UniProt Q06124); assay: SHP2 Biochemical Assay (DiFMUP conversion, pIRS1 activating peptide); settings: DiFMUP substrate, 0.25 μM pIRS1 peptide, 30 min pre-incubation; average where more than one data point; read-out: SHP2 (IC50)
# Chain of SHP2 (Q06124 whole entry): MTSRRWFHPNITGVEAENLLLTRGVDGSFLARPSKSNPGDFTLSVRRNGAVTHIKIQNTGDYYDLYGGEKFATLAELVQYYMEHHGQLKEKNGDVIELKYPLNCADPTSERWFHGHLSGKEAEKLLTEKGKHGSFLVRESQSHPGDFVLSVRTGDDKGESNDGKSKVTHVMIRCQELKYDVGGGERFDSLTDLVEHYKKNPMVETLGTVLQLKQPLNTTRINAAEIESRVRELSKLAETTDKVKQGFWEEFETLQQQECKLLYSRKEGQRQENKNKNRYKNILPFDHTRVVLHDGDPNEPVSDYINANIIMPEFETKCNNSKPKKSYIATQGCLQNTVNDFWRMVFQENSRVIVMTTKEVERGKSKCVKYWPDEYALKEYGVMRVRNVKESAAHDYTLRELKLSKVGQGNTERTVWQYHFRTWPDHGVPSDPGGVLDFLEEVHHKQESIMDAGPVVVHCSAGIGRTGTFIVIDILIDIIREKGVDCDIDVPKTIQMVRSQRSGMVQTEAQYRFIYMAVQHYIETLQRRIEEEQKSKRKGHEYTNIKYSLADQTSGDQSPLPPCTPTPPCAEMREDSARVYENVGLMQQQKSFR
SMILES,Cellular pERK assay (percent at stated concentration) (pERK in HCC827 cells; at 10 uM) [% at 10 uM],IC50 (SHP2) [nM],Cellular pERK assay (percent at stated concentration) (pERK in HCC827 cells; at 1 μM) [% at 1 μM]
"COc1ccc2ccc(-c3c[nH]c4nc(N5[C@@H]6CC[C@H]5C[C@@H](N)C6)cnc34)c(Cl)c2n1 [Example 27, endo-8-[7-(8-chloro-2-methoxyquinolin-7-yl)-5H-pyrrolo[2,3-b]pyrazin-3-yl]-8-azabicyclo[3.2.1]octan-3-amine, hydrochloride salt]",53,17,–
"COc1cc2c(Cl)c(-c3c[nH]c4nc(N5[C@@H]6CC[C@H]5C[C@@H](N)C6)cnc34)ccc2nc1C [Example 42, endo-8-[7-(5-chloro-3-methoxy-2-methylquinolin-6-yl)-5H-pyrrolo[2,3-b]pyrazin-3-yl]-8-azabicyclo[3.2.1]octan-3-amine]",–,17,24
"CC(C)n1nc2ccc(-c3n[nH]c4nc(N5[C@H]6CC[C@@H]5[C@@H](F)[C@@H](N)C6)c(CO)nc34)c(Cl)c2c1C#N [Example 149, 5-{6-[(1R,2S,3S,5S)-3-amino-2-fluoro-8-azabicyclo[3.2.1]octan-8-yl]-5-(hydroxymethyl)-1H-pyrazolo[3,4-b]pyrazin-3-yl}-4-chloro-2-(propan-2-yl)-2H-indazole-3-carbonitrile]",–,14,–
"N[C@H]1C[C@@H]2CC[C@H]([C@H]1F)N2c1nc2[nH]nc(-c3ccc4ncc(N5CCC5)nc4c3Cl)c2nc1CO [Example 150, {6-[(1R,2S,3S,5S)-3-amino-2-fluoro-8-azabicyclo[3.2.1]octan-8-yl]-3-[3-(azetidin-1-yl)-5-chloroquinoxalin-6-yl]-1H-pyrazolo[3,4-b]pyrazin-5-yl}methanol]",–,15,–
